# Data taken from patent US7875595B2, “2-polycyclic propynyl adenosine analogs having A2A agonist activity” (University of Virginia Patent Foundation, priority 2004, dated 2011).
# Where two headings read alike, the source gives them in different places.
# Key:
# [1] = molecular target: T1, recombinant human A2A receptors (Homo sapiens, UniProt P29274); experiment: Radioligand competition binding to recombinant human A2A receptors in Sf9 cell membranes (125I-APE or 125I-ZM241385); conditions: read-out: A2A (nM) binding affinity
# T1 construct: expressed in transfected cells; host or cells: Sf9 insect cells, viral infection, membranes
# Experimental: (§1) Sf9 cells were cultured in Grace's medium supplemented with 10% fetal bovine serum, 2.5 μg/ml amphotericin B and 50 μg/ml gentamycin in an atmosphere of 50% N2/50% O2. Viral infection was performed at a density of 2.5×10^6 cells/mL with a multiplicity of infection of two for each virus used. Infected cells were harvested 3 days post-infection and washed twice in insect PBS (PBS pH 6.3). Cells were then resuspended in lysis buffer (20 mM HEPES pH 7.5, 150 mM NaCl, 3 mM MgCl2, 1 mM β-mercaptoethanol (BME), 5 μg/mL leupeptin, 5 μg/mL pepstatin A, 1 μg/mL aprotinin, and 0.1 mM PMSF) and snap frozen for storage at −80° C. Cells were thawed on ice, brought to 30 mL total volume in lysis buffer, and burst by N2 cavitation (600 psi for 20 minutes). A low-speed centrifugation was performed to remove any unlysed cells (1000×g for 10 minutes), followed by a high-speed centrifugation (17,000×g for 30 minutes). The pellet from the final centrifugation was homogenized in buffer containing 20 mM HEPES pH 8, 100 mM NaCl, 1% glycerol, 2 μg/mL leupeptin, 2 μg/mL pepstatin A, 2 μg/mL Aprotinin, 0.1 mM PMSF, and 10 μM GDP using a small glass homogenizer followed by passage through a 26 gauge needle. Membranes were aliquoted, snap frozen in liquid N2, and stored at −80° C. Membranes from cells stably expressing the human A1 AR(CHO K1 cells) or A3 AR (HEK 293 cells) were prepared as described (Robeva et al., 1996).
# (§2) Radioligand binding to recombinant human A2A receptors in Sf9 cell membranes was performed using either the radio labeled agonist, ^125I-APE (Luthin et al., 1995) or the radio labeled antagonist, ^125I-ZM241385 (^125I-ZM). To detect the high affinity, GTPγS-sensitive state of A1 and A3AR, we used the agonist, ^125I-ABA (Linden et al., 1985; Linden et al., 1993). Binding experiments were performed in triplicate with 5 μg (A2A) or 25 μg (A1 and A3) membrane protein in a total volume of 0.1 mL HE buffer (20 mM HEPES and 1 mM EDTA) with 1 U/mL adenosine deaminase and 5 mM MgCl2 with or without 50 μM GTPγS. […] Nonspecific binding was measured in the presence of 50 μM NECA. […]
# human neutrophils = experiment: Human neutrophil oxidative activity, luminol-enhanced chemiluminescence (fMLP stimulated); type: cell-based; conditions: human neutrophil experiment as described in Example 6 without Rolipram, peak chemiluminescence, read-out: Functional
# Experimental: Chemiluminescence Methods: Luminol enhanced chemiluminescence, a measure of neutrophil oxidative activity, is dependent upon both superoxide production and mobilization of the granule enzyme myeloperoxidase. The light is emitted from unstable high-energy oxygen species such as hypochlorous acid and singlet oxygen generated by activated neutrophils.
# Following incubation 100 µL aliquots of the PMN were transferred to wells (White walled clear bottom 96 well tissue culture plates Costar #3670; 2 wells/condition) containing […] and luminol (final concentration 100 µM) with or without adenosine agonist (final agonist concentrations 0.01-1000 nM). The plate was incubated 5 min (37° C.) and then fMLP ([…] in HA; final concentration […]) was added to all wells.
# Peak chemiluminescence was determined with a Victor 1420 Multilabel Counter in the chemiluminescence mode using the Wallace Workstation software. Data are presented as peak chemiluminescence as percent of activity in the absence of an adenosine agonist. The EC50 was determined using PRISM software. All compounds were tested with PMNs from three separate donors.
# Purified neutrophils (−98% neutrophils and >95% viable by trypan blue exclusion) containing <1 platelet per 5 neutrophils and <50 pg/ml endotoxin (limulus amebocyte lysate assay) were obtained from normal heparinized (10 U/ml) venous blood by a one step Ficoll-hypaque separation procedure (A. Ferrante et al., J. Immunol. Meth., 36, 109 (1980)).
# Luminol-enhanced chemiluminescence, a measure of neutrophil oxidative activity, is dependent upon both superoxide production and mobilization of the lysosomal granule enzyme myeloperoxidase. The light is emitted from unstable high-energy oxygen species generated by activated neutrophils. […] Then luminol (1×10^−4 M) enhanced f-met-leu-phe (1 mcM) stimulated chemiluminescence was read with a Chronolog® Photometer (Crono-log Corp., Havertown, Pa.) at 37° C. for 2-4 minutes. […]
# human A1 AR = molecular target: T2, human A1 AR (Homo sapiens, UniProt P30542); experiment: Radioligand competition binding to human A1 adenosine receptor (125I-ABA); conditions: membranes of CHO K1 cells expressing human A1 AR, read-out: A1 (nM) binding affinity
# T2 construct: expressed in transfected cells
# T2 sequence (P30542 1-326): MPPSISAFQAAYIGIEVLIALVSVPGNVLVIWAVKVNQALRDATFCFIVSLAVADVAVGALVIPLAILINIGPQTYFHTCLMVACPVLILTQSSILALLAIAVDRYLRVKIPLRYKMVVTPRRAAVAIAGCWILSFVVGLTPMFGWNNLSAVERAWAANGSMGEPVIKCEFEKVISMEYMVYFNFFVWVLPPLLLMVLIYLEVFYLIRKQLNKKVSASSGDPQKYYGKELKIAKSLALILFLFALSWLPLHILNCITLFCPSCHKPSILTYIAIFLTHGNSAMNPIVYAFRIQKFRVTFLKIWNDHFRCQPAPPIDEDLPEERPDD
# Experimental: as §1, §2
# A3 AR = molecular target: T3, A3 AR (Homo sapiens, UniProt P0DMS8); experiment: Radioligand competition binding to human A3 adenosine receptor (125I-ABA); conditions: membranes of HEK 293 cells expressing A3 AR, read-out: A3 (nM) binding affinity
# T3 construct: expressed in transfected cells
# T3 sequence (P0DMS8 1-318): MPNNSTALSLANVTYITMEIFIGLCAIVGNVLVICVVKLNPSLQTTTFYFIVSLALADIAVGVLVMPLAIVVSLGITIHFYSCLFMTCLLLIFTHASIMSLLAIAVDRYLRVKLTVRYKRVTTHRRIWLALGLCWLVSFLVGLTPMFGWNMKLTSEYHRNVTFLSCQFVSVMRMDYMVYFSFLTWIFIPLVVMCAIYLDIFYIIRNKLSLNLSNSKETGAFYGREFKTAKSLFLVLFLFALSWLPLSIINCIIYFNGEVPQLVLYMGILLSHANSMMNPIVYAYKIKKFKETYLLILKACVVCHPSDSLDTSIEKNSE
# Experimental: as §1, §2
# T1 sequence (P29274 whole entry): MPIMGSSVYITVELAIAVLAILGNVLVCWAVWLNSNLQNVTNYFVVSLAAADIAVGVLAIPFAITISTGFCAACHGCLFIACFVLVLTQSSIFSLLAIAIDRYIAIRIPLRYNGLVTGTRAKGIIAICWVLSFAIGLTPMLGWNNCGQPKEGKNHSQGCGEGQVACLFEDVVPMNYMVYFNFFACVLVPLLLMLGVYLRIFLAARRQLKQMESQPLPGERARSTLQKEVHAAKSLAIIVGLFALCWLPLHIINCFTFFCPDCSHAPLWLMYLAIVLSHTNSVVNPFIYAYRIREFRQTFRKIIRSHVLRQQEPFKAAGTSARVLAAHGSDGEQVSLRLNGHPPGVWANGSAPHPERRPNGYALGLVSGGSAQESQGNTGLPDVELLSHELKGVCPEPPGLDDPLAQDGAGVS
Ki [1],"EC50 (human neutrophils; Homo sapiens, Neutrophil)",Ki (human A1 AR),Ki (A3 AR),EC50 (human neutrophils),Compound
0.6 nM,0.9 nM,10 nM,7 nM,–,"Nc1nc(C#CC2(O)CC3CCC2C3)nc2c1ncn2[C@@H]1O[C@H](C(=O)NC2CC2)C(O)C1O (stereo in doubt) [Example 1, 5-[6-Amino-2-(2-hydroxy-bicyclo[2.2.1]hept-2-ylethynyl)-purin-9-yl]-3,4-dihydroxy-tetrahydro-furan-2-carboxylic acid cyclopropylamide]"
2 nM,–,18 nM,12 nM,1.5 nM,"Nc1nc(C#CC2(O)CC3CCC2C3)nc2c1ncn2[C@@H]1O[C@H](C(=O)NC2CC2)C(O)C1O (stereo in doubt) [Example 2, 5-[6-Amino-2-(2-hydroxy-bicyclo[2.2.1]hept-2-ylethynyl)-purin-9-yl]-3,4-dihydroxy-tetrahydro-furan-2-carboxylic acid cyclopropylamide]"
1 nM,2.4 nM,67.2 nM,45.4 nM,–,"Nc1nc(C#CC2(O)C3CC4CC(C3)CC2C4)nc2c1ncn2[C@@H]1O[C@H](C(=O)NC2CC2)C(O)C1O (stereo in doubt) [Example 3, 5-[6-Amino-2-(2-hydroxy-adamantan-2-ylethynyl)-purin-9-yl]-3,4-dihydroxy-tetrahydro-furan-2-carboxylic acid cyclopropylamide]"
